{"source": "paper PMC4521150", "about": "“Discovery of Novel Inhibitors and Fluorescent Probe Targeting NAMPT” (Scientific Reports, 2015)", "key": {"[1]": {"test_system": "primary mouse hepatocytes", "assay": "Live cell fluorescence imaging in primary mouse hepatocytes (wild type vs NAMPT over expression transgenic)", "format": "cell-based", "conditions": "hepatocytes of NAMPT over expression transgenic vs wild type mice, 3 μM", "procedure": "(§1) Hepatocytes were isolated from mouse liver by the two-step collagenase perfusion method. […] For imaging experiment, 1 × 10^5 cells were plated in a 35-mm glass bottom dishes or 5 × 10^4 were plated in 48-well plate for cell viability assay in DMEM supplemented with 10% FBS and antibiotics, and kept under an atmosphere of 95% air and 5% CO2 at 37 °C.\n(§2) For imaging experiment, HepG2 cells or primary hepatocytes were seeded into 35-mm glass bottom dishes (In Vitro Scientific). The following day, compounds were added to the medium at a final concentration of 3 μM. After 30 minutes, cells were rinsed twice with PBS (pH 7.5), then incubated in fresh culture medium and imaged on a fluorescence microscope (IX-71, Olympus) with a digital camera (Olympus). After 4 hours, these cells were imaged once again. Digital images were recorded and analyzed using ImageJ."}, "recombinant human NAMPT": {"biological_target": "T1, recombinant human NAMPT (Homo sapiens, UniProt P43490)", "T1 construct": "His tag (N); made in house; host or cells: E. coli BL21-CodonPlus (DE3)-RIL, pET21a+ vector", "T1 sequence (P43490 whole entry)": "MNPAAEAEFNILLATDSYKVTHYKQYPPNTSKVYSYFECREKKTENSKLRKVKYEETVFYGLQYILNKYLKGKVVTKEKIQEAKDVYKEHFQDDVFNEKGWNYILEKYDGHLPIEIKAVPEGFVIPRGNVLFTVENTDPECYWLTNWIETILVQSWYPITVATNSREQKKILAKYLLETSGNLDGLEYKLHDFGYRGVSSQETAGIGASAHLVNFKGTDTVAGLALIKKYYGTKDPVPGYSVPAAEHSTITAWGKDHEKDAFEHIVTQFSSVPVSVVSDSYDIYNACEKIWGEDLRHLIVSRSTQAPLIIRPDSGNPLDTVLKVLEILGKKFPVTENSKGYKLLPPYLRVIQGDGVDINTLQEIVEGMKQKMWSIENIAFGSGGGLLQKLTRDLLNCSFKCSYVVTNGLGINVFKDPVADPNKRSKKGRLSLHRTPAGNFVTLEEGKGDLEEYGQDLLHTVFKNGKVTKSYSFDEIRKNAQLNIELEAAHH", "assay": "NAMPT activity assay, IC50 determination (fluorometric detection of NMN derivative)", "conditions": "molecular/biochemical assay, read-out: IC50 (NAMPT inhibition)", "description": "Using our previously established high throughput screening (HTS) platform and recombinant human NAMPT[14][15], we performed a HTS on a chemical library containing 30000 small-molecules (Chemdiv, CA, USA). Our HTS targeting NAMPT was developed based on a fluorometric method for NAMPT activity assay by measuring the fluorescence of nicotinamide mononucleotide (NMN) derivative resulting from the NAMPT enzymatic product NMN through simple chemical reactions (Fig. 1A). […] These fluorescent and non-fluorescent compounds were further studied separately.\nHTS was performed using our previously reported method. 0.5 μl stock of each compound (1 mM DMSO stock) was transferred to a 96-well PCR plate for screening. In the primary screening, 5 ng NAMPT in 20 μl reaction buffer [0.4 mM phosphoribosylpyrophosphate (PRPP, Sigma), 2 mM ATP, 0.02% BSA, 2 mM DTT, 12 mM MgCl2 and 50 mM Tris-HCl (pH = 7.5)] was added into each well, the plate was incubated at 37 °C for 5 min, then 4.5 μl substrate of NAM was added to initiate the enzyme reaction, resulting in a final concentration of 2% DMSO, 2 μg/ml NAMPT, 0.2 μM NAM and 20 μM compound. After reacting at 37 °C for 15 min, the enzyme reaction was terminated by heating at 95 °C for 1 min and cooling in an ice bath. The product of NMN was detected through the following approach: after adding 10 μl 20% acetophenone in DMSO and 10 μl 2 M KOH into each well, the mixture was vortex-mixed and kept in ice bath for 2 min. […] Finally, 85 μl mixtures in each well were transferred into a flat-bottom 96-well black plate (Greiner), and the fluorescence (F) was measured using a Tecan Infinity M200 plate reader (Tecan Group Ltd.) by setting the excitation and emission wavelength to 382 nm and 445 nm respectively. The last row of each 96-well plate includes six wells of background controls and six wells of reference controls. The relative enzyme activity (Activity%) regulated by specific compound was calculated according to equation (1): […]\nTo determine the IC50 of inhibitors, 0.5 μl compound stocks with various concentrations were added into 96-well plate. The plate was incubated at 37 °C for 5 min after addition of 20 μl reaction buffer containing NAMPT. […] The IC50 values were determined by non-linear fitting of the concentration-dependent curves with the four-parameter IC50 logistic equation."}, "HepG2 NAD levels": {"test_system": "HepG2 NAD levels", "assay": "Cellular NAD measurement (enzymatic cycling assay) in HepG2 cells", "format": "cell-based, human", "procedure": "Cellular level of NAD was measured by spectrophotometric enzymatic cycling assay, as described previously. Briefly, cells were seeded in 96-well plate and starved for over 12 h with serum-free DMEM at 60~70% confluency, following by treatment with compounds or vehicle for 24 h. Cells were lysed with 50 μl of 1M HClO4 on ice for 30 min. The lysates were cleared by centrifuging at 4 °C at 18,000 × g for 5 min, and cleared lysates (40 μl) were neutralized by adding 1M K2CO3 (16 μl) and incubation on ice for 20 min. After centrifuging for 10 min, 10 μl of supernatant were mixed with reaction buffer [50 mM Tris-HCl (pH 7.5), 3% ethanol, 1.66 mM PES (phenazineethosulfate), 0.42 mM MTT (3-(4,5-dimethylthiazolyl-2)-2,5-diphenyltetrazolium bromide), 90 μg/ml ADH] in a total volume of 100 ul, and incubated at 37 °C for 40 min. The absorbance at 570 nm was determined. A blank measurement without ADH was also carried out. Each experiment was carried out in triplicate in three replicate wells"}, "HepG2 cells [2]": {"test_system": "HepG2 cells", "assay": "Cell viability assay (CCK-8) in HepG2 cells", "format": "cell-based, human", "conditions": "for IC50: HepG2, 48 h, CCK-8, read-out: IC50 for inhibitory effect on HepG2 cell viability", "procedure": "(§3) Cell viability was determined by our previous method[27] using the Cell Counting Kit-8 (CCK-8, Dojindo, Japan). In human hepatocellular carcinoma cell line HepG2, cells were seeded in 96-well plate and starved for over 12 h with serum-free DMEM at 60~70% confluency, then treated with compounds or vehicle for 48 h. To determine the IC50 values of inhibitors, compounds with various concentrations were added into the 96-well plate. 10 μl CCK-8 solution was added to the culture medium and incubated at 37 °C for 1 h. The absorbance at 450 nm (A450) was detected by a plate reader. Each experiment was carried out in triplicate in three replicate wells. The IC50 values were determined by non-linear fitting of the concentration-dependent curves with the four-parameter IC50 logistic equation."}, "HepG2 cells [3]": {"test_system": "HepG2 cells", "assay": "Live cell fluorescence imaging of compounds in HepG2 cells", "format": "cell-based, human", "conditions": "3 μM", "procedure": "NAMPT knockdown in HepG2 cells was performed by transfection of NAMPT siRNA synthesized by Shanghai GenePharma Co., Ltd (Shanghai, China). The siRNA sequence targeting NAMPT corresponded to coding regions (5′-[…]-3′, 5′-[…]-3′) of the NAMPT gene. The nonspecific siRNA oligonucleotides (synthesized by Shanghai GenePharma Co., Ltd, Shanghai, China) were used as negative controls. 10 nM of NAMPT siRNA or nonspecific siRNA were transfected into HepG2 cells with Lipofectamine RNAiMax reagent (Invitrogen, CA, USA) according to the manufacturer’s instructions. After 24 or 48 hours, transfected cells were subjected to subsequent analysis.\nas §2"}, "Huh-7 cell": {"test_system": "Huh-7 cell", "assay": "Cell viability in Huh-7 cells", "format": "cell-based, human", "conditions": "Huh-7, Figure S2", "description": "However, IC50 values for other 5 fluorescent compounds were able to be determined (Supplemental dataset S2). We then measured the fluorescence of all 9 fluorescent compounds at a series of different concentrations."}, "[4]": {"test_system": "primary mouse hepatocytes", "assay": "Cell viability of primary hepatocytes from normal mice", "format": "cell-based", "conditions": "30 μM", "procedure": "as §3, §1"}}, "note": "Entries after “also recorded” stand apart in the source; their conditions may differ. Like-named read-outs stand apart in the source and are kept apart here."}
{"compound": "CCCn1c(=O)c(-c2ccc(C(=O)NCc3cccnc3)cc2)nc2ccccc21", "note": "[M049-0244]", "values": [{"measurement": "Cellular fluorescence intensity with NAMPT over expression", "setting": "[1]", "result": "increased the cellular fluorescence intensity"}, {"measurement": "IC50", "setting": "recombinant human NAMPT", "result": "170 ± 12", "unit": "nM"}, {"measurement": "Decrease of cellular NAD level", "setting": "HepG2 NAD levels; HepG2, 1 μM, 24 hours", "result": "~ 80%"}, {"measurement": "IC50", "setting": "HepG2 NAD levels; Homo sapiens, HepG2, 24 hours treatment, read-out: IC50 for reducing NAD level", "result": 17.6, "unit": "nM"}, {"measurement": "Rescue of cell viability by exogenous NMN", "setting": "HepG2 cells [2]; HepG2, 3 μM compound, NMN at 300 μM", "result": "totally rescued"}, {"measurement": "IC50", "setting": "HepG2 cells [2]", "result": "~2000", "unit": "nM"}, {"measurement": "IC50", "setting": "HepG2 cells [2]; Homo sapiens", "result": "1950 ± 170", "unit": "nM"}, {"measurement": "Effect on HepG2 cell viability at 1 and 10 μM", "setting": "HepG2 cells [2]; two concentrations (1 and 10 μM)", "result": "significant inhibition on HepG2 cell viability in a dose dependent manner"}, {"measurement": "Cellular fluorescence in living HepG2 cells", "setting": "HepG2 cells [3]; 30 minutes incubation, washed", "result": "fluorescence was obviously detected within the cell; also recorded: significantly stained living HepG2 cells"}, {"measurement": "Cellular fluorescence after NAMPT knockdown (RNAi-NAMPT)", "setting": "HepG2 cells [3]; HepG2, NAMPT siRNA vs nonspecific siRNA", "result": "significantly reduced the fluoresecence"}, {"measurement": "Effect on Huh-7 cell viability", "setting": "Huh-7 cell", "result": "Inhibitory effects"}, {"measurement": "Inhibition of normal hepatocytes viability", "setting": "[4]", "result": "~ 20%"}]}
